Test results from patent US7073512B2, “Adhesion prevention and an endoscopic insufflation system therefor” (Saturnus AG, priority 1997, dated 2006).

System: adhesion formation
Assay: Adhesion formation after CO2 laser injury under CO2 or CO2/O2 pneumoperitoneum, scored at second-look laparoscopy after one week
Format: in vivo, New Zealand white rabbits
Parameters: key to Mean total adhesion score: sum of extent (0-4), type (0-3), tenacity (0-3), inflammation (0-3)
Experimental: All animals received two standard CO2 laser injuries. A non opposing lesion was inflicted in the retro-uterine space, i.e. on the posterior utero-vaginal wall, consisting of a 2 cm^2; vaporization of the superficial layers with CO2 laser. In addition, an apposing lesion was performed in the oviduct and pelvic side wall, consisting of a 2 cm^2 vaporization, on both sides. The time required to induce the lesions varied from 3 to 7 minutes.
Animals were assigned randomly on a daily base, to one of the following seven experimental groups. First and second groups were considered control groups. In group 1, using conventional CO2 pneumoperitoneum, the total duration of the procedure was restricted to 10 minutes.
Adhesions were evaluated by laparoscopy after one week. All second look laparoscopies were videotaped, and subsequently scored blindly by two investigators, taking into account extent (0 to 4 points), type (0 to 3 points), tenacity (0 to 3 points) and inflammatory reaction (0 to 3 points) at the injury and at de-novo siteds.
Sixty five New Zealand white rabbits weighing between 2150 and 3000 grams were operated with a standard 3 puncture laparoscopy. Standard surgical injuries were inflicted with CO2 laser (Sharplan 1060: Sharplan, Tel Aviv, Israel) with a spot diameter of 1 mm and a power setting of 10 watts in the continuous superpulse mode. […] The output of both insufflators was mixed in a mixing chamber, humidified and warmed. The insufflation pressure was 10 cm of water and the intra-abdominal flow rate 20 l/min. It is obvious that all means in contact with O2 are adapted therefor.

| Structure (SMILES) | P of difference in total adhesion score versus control group with 100% CO2 (Group 2, 60′ CO2) (10′ CO2 (group 1)) | Mean total adhesion score (group 1: pure CO2 pneumoperitoneum, procedure restricted to 10 minutes) | Mean total adhesion score (group 2: pure CO2 pneumoperitoneum maintained 70 minutes) | Increase of adhesion scores, 60 min exposure in comparison with 10 min exposure (pure CO2, 60 min vs 10 min) | P of difference in total adhesion score versus control group with 100% CO2 (Group 2, 60′ CO2) (60′ 2.5% O2 (group 4)) | P of difference in total adhesion score versus control group with 100% CO2 (Group 2, 60′ CO2) (60′ 5% O2 (group 5)) | P of difference in total adhesion score versus control group with 100% CO2 (Group 2, 60′ CO2) (60′ 10% O2 (group 6)) | P of difference in total adhesion score versus control group with 100% CO2 (Group 2, 60′ CO2) (60′ 20% O2 (group 7)) | P of decrease in total adhesion score with the addition of O2 (de novo adhesions around the opposite tube) | Adhesiogenic effect of CO2 (from a final concentration of 5% oxygen onwards, together with CO2) | Mean total adhesion score (group 3: CO2 with 1% O2, pneumoperitoneum 70 minutes) | Mean total adhesion score (group 5: CO2 with 5% O2, pneumoperitoneum 70 minutes) | Mean total adhesion score (group 6: CO2 with 10% O2, pneumoperitoneum 70 minutes) | Mean total adhesion score (group 7: CO2 with 20% O2, pneumoperitoneum 70 minutes) | Amount of adhesions (increasing concentrations of oxygen in CO2 pneumoperitoneum) | P of decrease in total adhesion score with the addition of O2 (non opposing lesion in the pouch of Douglas) | P of decrease in total adhesion score with the addition of O2 (opposing lesion in tube/side wall) |
| --- | --- | --- | --- | --- | --- | --- | --- | --- | --- | --- | --- | --- | --- | --- | --- | --- | --- |
| O=C=O [CO2, carbon dioxide, reference compound] | P = 0.0002 | 4.5±3.7 | 17.5±6.7 | 4 fold |  |  |  |  |  |  |  |  |  |  |  |  |  |
| O=O [O2, oxygen] |  |  |  |  | P = 0.05 | P = 0.0005 | P = 0.007 | P = 0.005 | 0.0001 | completely abolished | 15.8±5.2 | 5.3±3.8 | 6.6±4.4 | 6.3±2.5 | decreased progressively | 0.0002 | 0.0014 |
